From US8362066B2, “Compounds and methods for treating protein folding disorders” (Treventis Corporation, priority 2006, dated 2013)

Assays:
Type in all cases: biochemical
[1] = molecular target: T1, Aβ1-40 (Homo sapiens, UniProt P05067); assay: ThT fluorescence assay, inhibition of Aβ1-40 aggregation
T1 construct: Both Aβ1-40 and Aβ1-42 were purchased from Anaspec; purchased Anaspec
Protocol: The compounds of the invention were evaluated for activity against Aβ aggregation in a kinetic thioflavin T (ThT) fluorescence assay similar to that of Chalifour, R. J., et al., J. Biol. Chem. (2003) 278: 34874-81. IC50 values for inhibition of Aβ1-40 aggregation in the ThT fluorescence assay for a number compounds of the present invention were determined. Values were calculated by solving the equation y=(m2)/(1+(x/m3)^m4) where y is percent aggregation, x is compound concentration, and m3 is the concentration giving 50% aggregation (i.e. IC50), using KaleidaGraph 4.0 (Synergy Software). Dye-binding ThT/ThS protein aggregation assays for Aβ, tau and α-synuclein were performed as described in Example 8 of US2007/0015813.

[2] = molecular target: T2, Tau 441 (Homo sapiens, UniProt P10636); assay: Tris-tricine SDS-PAGE, Tau 441 self-assembly following ThS aggregation assay; conditions: FIG. 10
Protocol: (§1) Pre-cast polyacrylamide gels were purchased from NuSep (10-20% Tris-tricine-SDS). These were chosen for their large separation range of 2.5 to 205 kDa. Molecular weight markers were purchased from Sigma Aldrich and diluted twenty fold for individual use. Three buffers were used for this technique: 1) Sample buffer (1.25 mL 0.5 M Tris-HCl (pH 6.8), 2.5 mL glycerol, 2.0 mL 10% SDS, 0.2 mL 0.5% bromophenol blue, 3.55 mL distilled water) which was used as the leading band in the gel. 2) Cathode Buffer (12.11 g tris base, 17.92 g tricine, 1 g SDS, diluted to 1 L with distilled water) which was the inner buffer in the tank assembly. 3) Anode Buffer (5× concentrated: 121.1 g tris base in 1 L of distilled water, pH 8.9 adjusted with concentrated HCl) which was the outer buffer and loaded at 1× concentration. Both Aβ1-40 and Aβ1-42 were purchased from Anaspec.
(§2) Five solutions were required to stain the gels using the silver stain protocol: 1) Fixer 1 (40% methanol, 10% acetic acid, diluted to 1 L with Millie-Q water) 2) Fixer 2 (45 g anhydrous sodium acetate, 300 mL methanol, 5 mL 25% glutaraldehyde, diluted to 1 L with Millie-Q water), 3) a) Silver stain A (15 mL of 25% ammonia solution, 0.8 g sodium hydroxide, diluted to 950 mL with Millie Q water). b) Silver stain B (6 g of silver nitrate in 50 mL Millie Q water). Solution B was then slowly added to solution A. 4) Developer (0.1 g citric acid, 1 mL formaldehyde, diluted to 1 L with Millie-Q water), 5) Stop solution (50 mL acetic acid, diluted to 1 L with Millie-Q water).
(§3) Following a ThT (Aβ1-40) or ThS (Tau 441) aggregation assay, described in Example 8 of US2007/0015813, samples were immediately aspirated and stored in centrifuge tubes. 10 μL of each sample was transferred to a microfuge tube and diluted 1:1 with sample buffer before being incubated (37° C.) for 30 minutes and loaded in the precast gels (15 μL in each well). The gel was then run at 100 V for approximately one hour or until the leading band reached the bottom of the gel.
(§4) Once the gel had finished running, it was removed from its plastic case and placed in a tray for staining. Approximately 200-250 mL volume was used for all the solutions. The gel was first washed with distilled water briefly to rinse off the excess buffer from the tank. It was then immersed in Fixer 1 for 30 minutes. followed by Fixer 2 for 30 minutes. Once the gel was fixed it then underwent three water washes at 10 minutes per wash. After the water washes, the gel was stained for 30 minutes using the silver stain solution. Excess stain was removed using three four-minute water washes. The gel was then immersed in the developer solution to visualize the stain. This took place for approximately 5 minutes or until the desired intensity was reached. To immediately stop the developing process the gel was placed in the stop solution for 10 minutes.

[3] = molecular target: T2, Tau 441; assay: ThS fluorescence assay, Tau 441 aggregation; conditions: Tau 441 6 μM; compound 50 μM and 10 μM; 24 hours, 37° C., FIG. 15
Protocol: (§5) The following procedures were used. The compounds were examined by circular dichroism (CD) to confirm their anti-amyloidogenic activity and were further evaluated for inhibition of both tau and α-synuclein aggregation in Thioflavin S (ThS) and ThT dye-binding fluorescence assays, respectively. The compounds were also evaluated in a MTT [3-(4,5-dimethylthiazol-2-yl)-2,5-diphenyltetrazolium bromide] cell viability assay (Kaneko, I., et al., J. Neurochem. (1995) 65: 2585-93). Pharmacokinetic (PK) testing was also performed. Compounds administered to mice (IP or PO dosing) had no toxicity at doses up to 300 mg/kg and were present in brain more than four hours after administration.
(§6) Dye-binding ThT/ThS protein aggregation assays for Aβ, tau and α-synuclein were performed as described in Example 8 of US2007/0015813.

[4] = molecular target: α-synuclein (Homo sapiens, UniProt P37840); assay: ThT fluorescence assay, α-synuclein aggregation; conditions: α-synuclein 4 μM, 96 hours, 37° C.
Protocol: as §5, §6

[5] = molecular target: T1, Aβ1-40; assay: Tris-tricine SDS-PAGE, Aβ1-40 self-assembly following ThT aggregation assay; conditions: FIG. 9
Protocol: as §1, §2, §3, §4

[6] = compound 100 μM and 20 μM, FIG. 16
[7] = compound 50 μM and 10 μM, FIG. 17

T2 sequence (P10636 1-441 isoform P10636-8): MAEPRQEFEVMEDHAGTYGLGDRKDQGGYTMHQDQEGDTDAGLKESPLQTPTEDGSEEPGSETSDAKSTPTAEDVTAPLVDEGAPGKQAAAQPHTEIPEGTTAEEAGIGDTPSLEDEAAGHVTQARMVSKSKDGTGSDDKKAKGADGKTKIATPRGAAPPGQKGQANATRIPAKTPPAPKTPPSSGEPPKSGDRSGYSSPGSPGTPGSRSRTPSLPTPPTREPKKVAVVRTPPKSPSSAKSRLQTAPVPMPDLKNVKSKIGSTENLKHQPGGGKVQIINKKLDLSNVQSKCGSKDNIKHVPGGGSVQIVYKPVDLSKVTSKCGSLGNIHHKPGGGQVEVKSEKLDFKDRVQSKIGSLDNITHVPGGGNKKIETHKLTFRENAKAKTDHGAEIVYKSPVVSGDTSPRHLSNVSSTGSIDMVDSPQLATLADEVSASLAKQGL
T1 sequence (P05067 672-711 limits assumed): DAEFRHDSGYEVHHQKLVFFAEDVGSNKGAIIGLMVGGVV

IC50 [1]	SMILES	further results
3.2 µM	Nc1ccc2[nH]cc(-c3c4ccccc4cc4c3[nH]c3ccc(N)cc34)c2c1 [QR-0302]	–
11.5 µM	O=C(O)c1ccc2c(-c3c[nH]c4ccc([N+](=O)[O-])cc34)c[nH]c2c1 [QR-0327]	–
3.3 µM	Oc1cccc(Nc2cccc(Nc3cccc(O)c3)c2)c1 [QR-0326]	–
0.54 µM	COc1ccc(Nc2ccc(Nc3ccc(OC)cc3)cc2)cc1 [QR-0292]	–
0.57 µM	Oc1ccc2cc(-c3cc4ccccc4o3)ccc2c1Br [QR-0297, 6-(Benzofuran-2-yl)-1-bromonaphthalen-2-ol]	–
5.7 µM	COc1cccc(Nc2cccc(Nc3cccc(OC)c3)c2)c1 [QR-0315]	–
> 200 µM	Oc1ccc2[nH]cc(CN3CCc4ccccc4C3)c2c1 [QR-0269]	–
16.5 µM	N#Cc1ccc2[nH]cc(-c3c[nH]c4ccc(O)cc34)c2c1 [QR-0276]	effect on distribution of Aβ1-40 among states of assembly / monomer (SDS-PAGE) [5]: little effect
10.3 µM	O=C(O)c1cccc2c(-c3cc4ccccc4s3)c[nH]c12 [QR-0261]	–
> 50 µM	O=C(O)c1cccc2c(-c3cc4ccccc4o3)cn(Cc3ccccc3)c12 [QR-0284, 3-Benzofuran-2-yl-1-benzyl-1H-indole-7-carboxylic acid]	–
1.03 µM	Oc1ccc(Nc2cccc(Nc3ccc(O)cc3)c2)cc1 [QR-0325]	–
2.4 µM	Oc1ccc(Nc2cccc(Nc3ccc(O)cc3)c2)cc1 [QR-0319]	–
19.5 µM	O=C(O)c1cccc2c(-c3cc4ccccc4s3)cn(Cc3ccccc3)c12 [QR-0287, 3-(Benzo[b]thiophen-2-yl)-1-benzyl-1H-indole-7-carboxylic acid]	–
9.4 µM	N#Cc1ccc2[nH]cc(-c3c(O)c(O)cc4ccccc34)c2c1 [QR-0321]	–
6.5 µM	N#Cc1ccc2[nH]cc(-c3ccc4cc(O)ccc4c3)c2c1 [QR-0313]	–
> 50 µM	COc1ccccc1Nc1cccc(Nc2ccccc2OC)c1 [QR-0316]	–
21 µM	O=C(O)c1cccc2c(-c3c[nH]c4ccc(Br)cc34)c[nH]c12 [QR-0303]	–
1.7 µM	Nc1ccc2[nH]cc(-c3c[nH]c4ccc(Br)cc34)c2c1 [QR-0300]	–

The remaining lines, values behind:

SMILES	IC50 [1]	further results
Oc1ccc2cc(-c3c[nH]c4ccc(O)cc34)ccc2c1 [QR-0225, 5-Hydroxy-3-(2-hydroxynaphthalen-6-yl)-1H-indole]	7 µM	–
Oc1ccc2cc(-c3ccc4c(c3)OCCO4)ccc2c1 [QR-0229, 6-(2,3-Dihydrobenzo[b][1,4]dioxin-7-yl)naphthalene-2-ol]	18.9 µM	–
COc1ccc2[nH]cc(-c3c[nH]c4ccc(C#N)cc34)c2c1 [QR-0238]	20.9 µM	–
O=C(O)c1cc2cc(-c3cc4ccccc4o3)ccc2c(Br)c1O [QR-0244, 7-(Benzofuran-2-y)-4-bromo-3-hydroxynaphthalene-2-carboxylic acid]	5.6 µM	Tau 441 dimer and trimer bands (SDS-PAGE) [2]: appearance of dimer and trimer bands; effect on Tau 441 self-assembly, monomer fragmentation (SDS-PAGE) ([2]; relative to control): decreased fragmentation of tau 441 monomer; inhibition of Tau 441 aggregation (ThS fluorescence) [3]: greatly inhibited
O=C(O)c1cccc2c(-c3cc4ccccc4o3)c[nH]c12 [QR-0256]	17.1 µM	–
Oc1cc2ccccc2c(-c2c[nH]c3ccccc23)c1O [QR-0189]	19 µM	inhibition of α-synuclein aggregation (ThT fluorescence) [4, 6]: showed inhibition
COc1ccc2[nH]cc(-c3c[nH]c4ccc([N+](=O)[O-])cc34)c2c1 [QR-0171]	5.8 µM	–
O=C(O)c1ccc2c(c1)c(-c1ccc3cc(O)ccc3c1)cn2Cc1ccccc1 [QR-0162, 1-Benzyl-3-(6-hydroxynaphthalen-2-yl)-indole-5-carboxylic acid]	17.5 µM	inhibition of α-synuclein aggregation (ThT fluorescence) [4, 7]: showed inhibition
Oc1cc2ccccc2c(-c2ccc3c(c2)OCCO3)c1O [QR-0231, 1-(2,3-Dihydrobenzo[b][1,4]dioxin-7-yl)-2,3-dihydroxynaphthalene]	27.8 µM	–
Oc1ccc(C=Cc2cc(O)cc(O)c2)cc1 [resveratrol, reference compound]	–	inhibition of α-synuclein aggregation (ThT fluorescence) [4, 6]: showed inhibition
N#Cc1ccc2[nH]cc(-c3c[nH]c4ccc(Br)cc34)c2c1 [QR-0240]	12 µM	–
Oc1cc2ccccc2c(-c2cc3ccccc3o2)c1O [QR-0164, 2-(2,3-Dihydroxynaphthalen-1-yl)-benzofuran]	3 µM	inhibition of α-synuclein aggregation (ThT fluorescence) [4, 7]: showed inhibition
COc1ccc2cc(-c3c[nH]c4ccc(C(=O)O)cc34)ccc2c1 [QR-0216]	35.5 µM	–
O=C(O)c1cccc2c(-c3ccc4cc(O)ccc4c3)c[nH]c12 [QR-0258, 3-(2-Hydroxynaphthalen-6-yl)-1H-indole-7-carboxylic acid]	10 µM	–
COc1c(C(=O)O)cc2cc(-c3ccc4c(c3)OCCO4)ccc2c1Br [QR-0282, 4-Bromo-7-(2,3-dihydrobenzo[b][1,4]dioxin-7-yl)-3-methoxynaphthalene-2-carboxylic acid]	–	Aβ1-40 dimer band (SDS-PAGE) [5]: appearance of a dimer band; effect on distribution of Aβ1-40 among states of assembly / monomer (SDS-PAGE) [5]: increase in the concentration of Aβ1-40 monomer
O=C(O)c1ccc2[nH]cc(-c3c[nH]c4cccc(O)c34)c2c1 [QR-0176]	1.99 µM	inhibition of α-synuclein aggregation (ThT fluorescence) [4, 6]: showed inhibition
O=C(O)c1ccc2[nH]cc(-c3c[nH]c4ccc(O)cc34)c2c1 [QR-0142]	–	effect on distribution of Aβ1-40 among states of assembly / monomer (SDS-PAGE) [5]: increase in the concentration of Aβ1-40 monomer
Oc1ccc2[nH]cc(-c3c(O)c(O)cc4ccccc34)c2c1 [QR-0212, 5-hydroxy-3-(2,3-dihydroxyynathalen-1-yl)-1H-indole]	8.2 µM	inhibition of α-synuclein aggregation (ThT fluorescence) [4, 6]: showed inhibition
O=C(O)c1ccc2c(-c3c[nH]c4ccc(O)cc34)c[nH]c2c1 [QR-0253]	11.8 µM	–
